Key:
[1] = tested on: N2a-mLRP4-Tless cells; assay: FAM-Aβ42 uptake in LRP1 endocytosis-deficient cells, FACS; format: cell-based, mouse; settings: 500 nM, 48 h, pronase-treated and untreated cells
Source text: To determine whether the endocytic function of LRP1 is required for Aβ42 internalization and accumulation, we first analyzed the effect of clathrin knockdown on the uptake of FAM-Aβ42 in N2a-mLRP4 cells. We decreased the expression of clathrin heavy chain by lentiviral-mediated delivery of small hairpin interfering RNA (shRNA) in N2a-mLRP4 cells and analyzed cell surface levels of mLRP4 by FACS. Lentiviral-mediated knockdown of clathrin heavy chain substantially decreases the protein levels of clathrin heavy chain and evokes a twofold-increase in the levels of cell surface mLRP4 in N2a cells (Fig. 4A), consistent with an impairment of clathrin-mediated endocytosis of this LRP1 minireceptor. […] As a control for specificity, we analyzed the uptake of a FAM-Aβ42 peptide that contained the same amino acid composition but in a scrambled sequence. […] To further confirm this, we specifically targeted the endocytic function of mLRP4 and analyzed the internalization of FAM-Aβ42 in LRP1 endocytosis-deficient cells. […]
Figure 4 LRP1 endocytosis is required for Aβ42 uptake and accumulation in N2a cells. […] The levels of cell surface and total pools of mLRP4 were determined by flow cytometric analyses with anti-HA antibody in non-permeabilized and saponin-treated cells, respectively. The surface-to-total ratio were calculated and plotted as fold-change to control-infected cells. […]

[2] = tested on: MEF cells; assay: FAM-Aβ42 internalization in wild-type (MEF1) and LRP1 knockout (MEF2) fibroblasts, FACS; format: cell-based, mouse; settings: 500 nM FAM-Aβ42, 37°C, 4 h, n = 3, p<0.01
Description: To rule out cell type-specific effects and artifacts due to the expression of LRP1 minireceptor, we performed similar FAM-Aβ42 uptake experiments in GT1-7 neuronal cells with reduced endogenous LRP1 levels by siRNA knockdown (Fig. 3A), and in mouse embryonic fibroblasts from both wild-type (MEF1) and LRP1 knockout mice (MEF2) (Fig. 3B). GT1-7 cells were plated and treated as indicated in the Experimental Procedures and GT1-7 and MEF cells were incubated with 500 nM of FAM-Aβ42 at 37°C for 4 h. Steady-state levels of intracellular Aβ42 were determined by flow cytometric analysis of pronase-treated cells. […]
Figure 3 LRP1 mediates internalization and accumulation of Aβ42 in GT1-7 and MEF cells. […] After 72 h, cells were treated with 500 nM FAM-Aβ42 for 4 h and intracellular Aβ42 was determined by flow cytometric analyses of pronase-treated cells as described in the Experimental Procedures. […] Wild type (MEF1) and LRP1 knockout (MEF2) fibroblasts were treated with 500 nM FAM-Aβ42 for 4 h, and intracellular Aβ42 was determined by flow cytometric analyses. ** p<0.01, t-test. n = 3. C, cell lysates from GT1-7 and MEF cells treated as in A and B, analyzed by 7.5% SDS-PAGE, and Western blotted with anti-LRP1 antibodies.
For quantification of Aβ uptake experiments, stable N2a cells were plated into 12-well plates at 16,250 cells/cm^2 and grown overnight. […]

FAM-Aβ42: FAM-Aβ42 peptide (23526) from Anaspec; amyloid-β 42 with carboxyfluorescein at the N-terminal region
FAM-Aβ42 uptake in N2a-mLRP4-Tless compared to N2a-pcDNA3 cells [1]: similar | internalization of FAM-Aβ42 in MEF2 (LRP1 knockout) compared to MEF1 (wild type) [2]: decrease
